System: system A transporters (including Slc38A1)
Assay: Effect of blocking system A transport on arthritis in mice
Format: in vivo
Source text: FIG. 3 is a graph showing the effect of blocking the system A transporters (including Slc38A1) on (A) mean arthritis score and (B) anti collagen antibody production. P=<0.05, n=20.
This confirms that disease susceptibility can be changed both by increased and decreased transporter activity.

CNC(C)(C)C(=O)O [MeAIB]
arthritis susceptibility: increases arthritis susceptibility
